In brackets after ≈: the same amount, converted by molar mass.

Assay type in all cases: functional
Assay [1] deals with Pseudomonas aeruginosa. The assay is described as follows: Anti-bacterial activity against Pseudomonas aeruginosa ATCC 27853 assessed as inhibition of bacterial growth. As to conditions: Pseudomonas aeruginosa, ATCC 27853; read-out: MIC.
Assay [2] relates to Enterococcus faecalis. Description: Anti-bacterial activity against Enterococcus faecalis V583 assessed as inhibition of bacterial growth.
Assay [3] relates to Staphylococcus aureus. Description: Anti-bacterial activity against Staphylococcus aureus ATCC 1708 assessed as inhibition of bacterial growth. The following applies: Staphylococcus aureus, ATCC 1708; read-out: MIC.
The subject of assay [4] is Escherichia coli. The assay is described as follows: Anti-bacterial activity against Escherichia coli JM109 assessed as inhibition of bacterial growth.
For assay [5], the system named is Staphylococcus aureus. The assay is described as follows: Anti-bacterial activity against methicillin-resistant Staphylococcus aureus ATCC 43300 assessed as inhibition of bacterial growth. As to conditions: Staphylococcus aureus, ATCC 43300; read-out: MIC.
For assay [6], the system named is Pseudomonas aeruginosa. The assay is described as follows: Anti-bacterial activity against Pseudomonas aeruginosa ST235 assessed as inhibition of bacterial growth. The following applies: Pseudomonas aeruginosa, ST235; read-out: MIC.
Assay [7] has as its system Staphylococcus aureus. Description: Anti-bacterial activity against Staphylococcus aureus ATCC 25923 assessed as inhibition of bacterial growth. As to conditions: Staphylococcus aureus, ATCC 25923; read-out: MIC.
Assay [8] deals with Staphylococcus aureus. Description: Anti-bacterial activity against Staphylococcus aureus CMCC (B) 26001 assessed as inhibition of bacterial growth.
Assay [9] deals with Acinetobacter baumannii. Description: Anti-bacterial activity against Acinetobacter baumannii R674 assessed as inhibition of bacterial growth.
Assay [10] relates to Staphylococcus aureus. Description: Anti-bacterial activity against Staphylococcus aureus ATCC 29213 assessed as inhibition of bacterial growth. The following applies: Staphylococcus aureus, ATCC 29213; read-out: MIC.
For assay [11], the system named is Pseudomonas aeruginosa. The assay is described as follows: Anti-bacterial activity against Pseudomonas aeruginosa CMCC (B) 10104 assessed as inhibition of bacterial growth. The following applies: Pseudomonas aeruginosa, CMCC (B) 10104; read-out: MIC.
In assay [12] the test system is Pseudomonas aeruginosa. Description: Anti-bacterial activity against Pseudomonas aeruginosa ATCC 9027 assessed as inhibition of bacterial growth.
The subject of assay [13] is Staphylococcus aureus. Description: Anti-bacterial activity against Staphylococcus aureus ATCC 12600 assessed as inhibition of bacterial growth. As to conditions: Staphylococcus aureus, ATCC 12600; read-out: MIC.
The subject of assay [14] is Candida albicans. The assay is described as follows: Anti-fungal activity against Candida albicans 90023 assessed as inhibition of fungal growth.
Assay [15] relates to Candida parapsilosis. The assay is described as follows: Anti-fungal activity against Candida parapsilosis assessed as inhibition of fungal growth. As to conditions: Lodderomyces parapsilosis; read-out: MIC.
Assay [16] has as its system Klebsiella pneumoniae. Description: Anti-bacterial activity against Klebsiella pneumoniae KPN325 assessed as inhibition of bacterial growth. The following applies: Klebsiella pneumoniae, KPN325; read-out: MIC.
Assay [17] deals with Staphylococcus aureus. Description: Anti-bacterial activity against Staphylococcus aureus ATCC 6538 assessed as inhibition of bacterial growth.
In assay [18] the test system is Escherichia coli. Description: Anti-bacterial activity against Escherichia coli ATCC 25922 assessed as inhibition of bacterial growth.
Assay [19] concerns Staphylococcus aureus. The assay is described as follows: Anti-bacterial activity against methicillin-resistant Staphylococcus aureus N315 assessed as inhibition of bacterial growth. The following applies: Staphylococcus aureus, N315; read-out: MIC.
The subject of assay [20] is Pseudomonas aeruginosa. The assay is described as follows: Anti-bacterial activity against Pseudomonas aeruginosa ATCC 15442 assessed as inhibition of bacterial growth. As to conditions: Pseudomonas aeruginosa, ATCC 15442; read-out: MIC.
Assay [21] relates to Candida albicans. The assay is described as follows: Anti-fungal activity against Candida albicans assessed as inhibition of fungal growth. The following applies: Candida albicans; read-out: MIC.
The subject of assay [22] is Candida tropicalis. Description: Anti-fungal activity against Candida tropicalis assessed as inhibition of fungal growth. As to conditions: Candida tropicalis; read-out: MIC.
In assay [23] the test system is Staphylococcus aureus. Description: Anti-bacterial activity against Staphylococcus aureus CMCC (B) 26003 assessed as inhibition of bacterial growth.

As a reminder, the MIC is the lowest concentration found to suppress growth. Consider `CCOC(=O)C1=C(CN2CCNCC2)NC(=O)NC1c1ccc2c(c1)c1ccccc1n2CC` (configuration not stated), for which the MIC in [1] stood at 222 µM (≈ 102 µg/mL); in [2], 28 µM (≈ 12.9 µg/mL); in assay [3] it was 222 µM (≈ 102 µg/mL); in assay [4], 222 µM (≈ 102 µg/mL); in [5] it was 111 µM (≈ 51.2 µg/mL); in assay [6] it was 222 µM (≈ 102 µg/mL). The MIC was 222 µM (≈ 102 µg/mL) in assay [7]; 111 µM (≈ 51.2 µg/mL) in assay [8]; 7 µM (≈ 3.23 µg/mL) in assay [9]; 14 µM (≈ 6.46 µg/mL) in assay [10]; 444 µM (≈ 205 µg/mL) in assay [11]; 444 µM (≈ 205 µg/mL) in assay [12]. The minimal inhibitory concentration (MIC) in assay [13] is 222 µM (≈ 102 µg/mL); in assay [14] it was 59 µM (≈ 27.2 µg/mL); in [15], 470 µM (≈ 217 µg/mL); in assay [16], 222 µM (≈ 102 µg/mL); in assay [17] it was 111 µM (≈ 51.2 µg/mL); in [18], 222 µM (≈ 102 µg/mL). In addition, the MIC in assay [19] came out at 222 µM (≈ 102 µg/mL); in assay [20], 56 µM (≈ 25.8 µg/mL); in [21] it was 470 µM (≈ 217 µg/mL); in [22], 470 µM (≈ 217 µg/mL); in assay [23], 222 µM (≈ 102 µg/mL).
As for `CCOC(=O)C1=C(CN2CCN(C(=O)/C(=N/OC)c3csc(N)n3)CC2)NC(=O)NC1c1ccc(O)c(Br)c1` (configuration not stated), the MIC in assay [1] worked out at 52 µM (≈ 32.4 µg/mL); in [2], 13 µM (≈ 8.09 µg/mL); in [3], 103 µM (≈ 64.1 µg/mL); in assay [4], 52 µM (≈ 32.4 µg/mL); in [5], 26 µM (≈ 16.2 µg/mL); in [6], 52 µM (≈ 32.4 µg/mL). Further, the minimal inhibitory concentration (MIC) in assay [7] was 26 µM (≈ 16.2 µg/mL); in assay [8], 52 µM (≈ 32.4 µg/mL); in assay [9], 26 µM (≈ 16.2 µg/mL); in assay [10], 52 µM (≈ 32.4 µg/mL); in [11], 103 µM (≈ 64.1 µg/mL); in assay [12], 103 µM (≈ 64.1 µg/mL). Moreover, the MIC was found to be 52 µM (≈ 32.4 µg/mL) in assay [13]; 104 µM (≈ 64.7 µg/mL) in assay [14]; 415 µM (≈ 258 µg/mL) in assay [15]; 52 µM (≈ 32.4 µg/mL) in [16]; 52 µM (≈ 32.4 µg/mL) in assay [17]; 52 µM (≈ 32.4 µg/mL) in [18]. The minimum inhibitory concentration (MIC) was 103 µM (≈ 64.1 µg/mL) in assay [19]; 52 µM (≈ 32.4 µg/mL) in assay [20]; 415 µM (≈ 258 µg/mL) in assay [21]; 415 µM (≈ 258 µg/mL) in [22]; 103 µM (≈ 64.1 µg/mL) in assay [23].
Turning to `CCCCc1nc(Cl)c(C2NC(=O)NC(CN3CCN(CC(=O)c4ccc(F)cc4)CC3)=C2C(=O)OCC)[nH]1` (configuration not stated), the MIC in assay [1] came to 57 µM (≈ 32 µg/mL); in assay [2], 57 µM (≈ 32 µg/mL); in assay [3], 114 µM (≈ 64 µg/mL); in [4], 114 µM (≈ 64 µg/mL); in assay [5] it was 114 µM (≈ 64 µg/mL); in [6], 57 µM (≈ 32 µg/mL). The MIC in assay [7] turned out to be 57 µM (≈ 32 µg/mL); in assay [8], 57 µM (≈ 32 µg/mL); in assay [9], 114 µM (≈ 64 µg/mL); in [10] it was 57 µM (≈ 32 µg/mL); in assay [11], 114 µM (≈ 64 µg/mL); in [12], 114 µM (≈ 64 µg/mL). The MIC amounted to 57 µM (≈ 32 µg/mL) in assay [13]; 29 µM (≈ 16.3 µg/mL) in assay [14]; 457 µM (≈ 256 µg/mL) in assay [15]; 229 µM (≈ 128 µg/mL) in [16]; 229 µM (≈ 128 µg/mL) in assay [17]; 114 µM (≈ 64 µg/mL) in [18]. The MIC turned out to be 229 µM (≈ 128 µg/mL) in assay [19]; 114 µM (≈ 64 µg/mL) in [20]; 457 µM (≈ 256 µg/mL) in assay [21]; 457 µM (≈ 256 µg/mL) in assay [22]; 114 µM (≈ 64 µg/mL) in assay [23].
Take `CCOC(=O)C1=C(CN2CCN(C(=O)/C(=N/OC)c3csc(N)n3)CC2)NC(=O)NC1c1ccc(N(C)C)cc1` (configuration not stated): the minimal inhibitory concentration (MIC) in [1] was 225 µM (≈ 128 µg/mL); in assay [2], 28 µM (≈ 16 µg/mL); in assay [3], 112 µM (≈ 63.9 µg/mL); in assay [4] it was 112 µM (≈ 63.9 µg/mL); in assay [5] it was 56 µM (≈ 32 µg/mL); in [6] it was 225 µM (≈ 128 µg/mL). In addition, the minimum inhibitory concentration (MIC) came out at 112 µM (≈ 63.9 µg/mL) in assay [7]; 449 µM (≈ 256 µg/mL) in assay [8]; 56 µM (≈ 32 µg/mL) in assay [9]; 225 µM (≈ 128 µg/mL) in [10]; 225 µM (≈ 128 µg/mL) in [11]; 225 µM (≈ 128 µg/mL) in [12]. The MIC worked out at 225 µM (≈ 128 µg/mL) in assay [13]; 52 µM (≈ 29.7 µg/mL) in assay [14]; 412 µM (≈ 235 µg/mL) in [15]; 225 µM (≈ 128 µg/mL) in assay [16]; 28 µM (≈ 16 µg/mL) in assay [17]; 225 µM (≈ 128 µg/mL) in [18]. In addition, the minimum inhibitory concentration (MIC) was 449 µM (≈ 256 µg/mL) in [19]; 225 µM (≈ 128 µg/mL) in [20]; 412 µM (≈ 235 µg/mL) in assay [21]; 412 µM (≈ 235 µg/mL) in assay [22]; 225 µM (≈ 128 µg/mL) in assay [23].

The values above are taken from ChEMBL document CHEMBL5505979, “Novel aminothiazoximone-corbelled ethoxycarbonylpyrimidones with antibiofilm activity to conquer Gram-negative bacteria through potential multitargeting effects” (Eur J Med Chem, 2024).
